Test results published in US11148991B2, “5-bromo-2-(alpha-hydroxypentyl)benzoic acid sodium salts in different crystal forms, and preparation method thereof” (priority 2013, dated 2021).
Where two headings read alike, the source gives them in different places.

How the values were obtained:
[1] = Solubility in water and methanol; type: physicochemical
Rat = assay: Sub-acute toxicity, rat
rat MCAO model = assay: Brain infarction volume and brain edema volume in rats with local brain ischemia (MCAO model); type: in vivo, Wistar rats; settings: sodium salt
Description: Wistar rats (50% of rats is female and another 50% of rats is male); 5-bromo-2-(α-hydroxypentyl)benzoic acid sodium salt (BZP, in the form of amorphous form, crystal form A and crystal form B, prepared according to the present invention), prepared in double distilled water; […] is in the form of white powder, manufactured by Beijing Chemical Works.
Administration method: 5-bromo-2-(α-hydroxypentyl)benzoic acid sodium salt (BZP) was intravenously injected at one hour before MCAO, with the dosage of 12 mg/kg; 5-bromo-2-(α-hydroxypentyl)benzoic acid sodium salt (BZP) was used to intragastric administration at one hour before MCAO, with the dosage of 20 mg/kg. 2-(α-hydroxypentyl)benzoic acid potassium salt (NBP-K) was used as positive control, and its dosage (calculated in moles) is the same as that of 5-bromo-2-(α-hydroxypentyl)benzoic acid sodium salt, that is, the dosage of intravenous injection is 9.6 mg/kg, and the dosage of intragastric administration is 15.9 mg/kg.
Preparation of MCAO model: Establish a focal brain ischemia-reperfusion injury model by cerebral artery obstruction in rats with suture-occluded method. Rats were intraperitoneally injected with 10% chloral hydrate to anesthetize. Rats were fixed on back and the skin of neck center was incised. The left common carotid artery, external carotid artery, and internal carotid artery were subjected to blunt dissection. The pterygopalatine artery was ligated, only remaining cranial trunk of internal carotid artery; a prepared nylon rope (burning diameter 0.3 mm) was inserted via external carotid artery incision into the bifurcation of the […], and was pushed along the cranial direction of the internal carotid artery. […] This indicates one side of the middle cerebral artery occlusion model was completed. Sutured the incision, remained the end of nylon line out of the skin. For reperfusion, the nylon line was gently pulled out. If feel force of resistance, this indicates the end of nylon line has returned to the trunk of external carotid artery, thereby accomplishing reperfusion.
Determination of infarction volume: After being subjected to ischemia for 2 hours and reperfusion for 24 hours, the heads of rats were cut off. Forebrain was removed and cut into six pieces, each piece being 2 mm. The pieces were stained with TC, and incubated at 37° C. for 30 minutes. Normal issues were stained to be red, but the infarcted issues were stained to be white. Took photos with digital camera, and calculated the percentage of the infarcted area relative to the spherical area of brain by Photoshop.

blood routine tests = assay: Sub-acute toxic effect on blood routine tests; type: in vivo, Rat; design: WBC / RBC: unit not given beside the values; settings: for PLT: in 10^9/L (unit assumed); for Lymphocyte (LYM): in % (unit assumed); for HGB: in g/L (unit assumed)
[2] = Acute toxicity (LD50), rat; settings: in vivo
[3] = test system: liver and kidney functions in rats; assay: Sub-acute toxic effect on liver and kidney functions in rats; type: in vivo; design: AST: unit not given here; settings: for Albumin (ALB) / Total Proteins (TP): in g/L (unit assumed); for Creatinine (CRE): in µmol/L (unit assumed)
[4] = Stability in water and methanol solution; type: physicochemical; settings: sodium salt
[5] = intragastric administration one hour before MCAO, BZP 20 mg/kg, NBP-K 15.9 mg/kg
[6] = intravenous injection one hour before MCAO, 12 mg/kg, 12 mg/kg
[7] = rats F, iv (12 mg/kg), in U/L (unit assumed)

CCCCC(O)c1ccc(Br)cc1C(=O)[O-].[Na+] (stereo not drawn) [BZP (amorphous form), 5-bromo-2-(α-hydroxypentyl)benzoic acid sodium salt]
solubility ([1]; methanol, organic solvent or mixture, methanol, read-out: Solubility in methanol): 1890 mg/mL
solubility ([1]; water, read-out: Solubility in water): 2980 mg/mL
Sub-acute (Rat; ig): >20 mg/kg
Sub-acute (Rat; iv): >12 mg/kg
Edema (%) (rat MCAO model; [5]): 2.24 ± 1.66^aa** %
Infarction volume (%) (rat MCAO model; [5]): 5.59 ± 2.35 aa %
Inhibition of edema (%) (rat MCAO model; [5]): 88.36%
Inhibition of infarction volume (%) (rat MCAO model; [5]): 89.05%
Edema (%) (rat MCAO model; [6]): 2.56 ± 1.63 aa %
Inhibition of edema (%) (rat MCAO model; [6]): 88.58%
Infarction volume (%) (rat MCAO model; intravenous injection one hour before MCAO, BZP 12 mg/kg, NBP-K 9.6 mg/kg, ischemia 2 hours, reperfusion 24 hours): 3.46 ± 2.94 aa %
Inhibition of infarction volume (%) (rat MCAO model; intravenous injection one hour before MCAO, BZP 12 mg/kg, NBP-K 9.6 mg/kg): 93.52%
Basophil (RAS) (blood routine tests; F, ig (20 mg/kg)): 1.43 ± 1.17
Eosinophil (EOS) (blood routine tests; F, ig (20 mg/kg)): 0.23 ± 0.12
Monocyte (MON) (blood routine tests; F, ig (20 mg/kg)): 2.05 ± 1.74
Neutrophil (NEU) (blood routine tests; F, ig (20 mg/kg)): 28.44 ± 10.20
RBC (blood routine tests; F, ig (20 mg/kg)): 4.51 ± 3.30
WBC (blood routine tests; F, ig (20 mg/kg)): 4.44 ± 2.24
PLT (blood routine tests; F, ig (20 mg/kg)): 1146.00 ± 74.22
Lymphocyte (LYM) (blood routine tests; F, ig (20 mg/kg)): 66.45 ± 11.13
HGB (blood routine tests; F, ig (20 mg/kg)): 117.00 ± 19.70
Basophil (RAS) (blood routine tests; F, iv (12 mg/kg)): 0.56 ± 0.15
Eosinophil (EOS) (blood routine tests; F, iv (12 mg/kg)): 0.76 ± 0.50
Monocyte (MON) (blood routine tests; F, iv (12 mg/kg)): 3.62 ± 0.63
Neutrophil (NEU) (blood routine tests; F, iv (12 mg/kg)): 21.44 ± 2.74
RBC (blood routine tests; F, iv (12 mg/kg)): 6.95 ± 1.06
WBC (blood routine tests; F, iv (12 mg/kg)): 5.20 ± 1.53
PLT (blood routine tests; F, iv (12 mg/kg)): 1075.00 ± 41.70
Lymphocyte (LYM) (blood routine tests; F, iv (12 mg/kg)): 73.62 ± 2.16
HGB (blood routine tests; F, iv (12 mg/kg)): 125.60 ± 16.68
Basophil (RAS) (blood routine tests; M, ig (20 mg/kg)): 0.62 ± 0.25
Eosinophil (EOS) (blood routine tests; M, ig (20 mg/kg)): 0.56 ± 0.50
Monocyte (MON) (blood routine tests; M, ig (20 mg/kg)): 4.93 ± 1.91
Neutrophil (NEU) (blood routine tests; M, ig (20 mg/kg)): 23.88 ± 5.48
RBC (blood routine tests; M, ig (20 mg/kg)): 7.61 ± 0.28
WBC (blood routine tests; M, ig (20 mg/kg)): 5.18 ± 0.71
PLT (blood routine tests; M, ig (20 mg/kg)): 1258.20 ± 281.33
Lymphocyte (LYM) (blood routine tests; M, ig (20 mg/kg)): 70.84 ± 3.99
HGB (blood routine tests; M, ig (20 mg/kg)): 134.00 ± 19.13
Basophil (RAS) (blood routine tests; M, iv (12 mg/kg)): 0.40 ± 0.12
Eosinophil (EOS) (blood routine tests; M, iv (12 mg/kg)): 0.60 ± 0.29
Monocyte (MON) (blood routine tests; M, iv (12 mg/kg)): 3.80 ± 0.70
Neutrophil (NEU) (blood routine tests; M, iv (12 mg/kg)): 22.16 ± 4.14
RBC (blood routine tests; M, iv (12 mg/kg)): 7.86 ± 0.40
WBC (blood routine tests; M, iv (12 mg/kg)): 5.66 ± 2.23
PLT (blood routine tests; M, iv (12 mg/kg)): 1087.20 ± 56.34
Lymphocyte (LYM) (blood routine tests; M, iv (12 mg/kg)): 72.50 ± 4.66
HGB (blood routine tests; M, iv (12 mg/kg)): 141.40 ± 7.20
LD50 ([2]; iv): 246 mg/kg
LD50 ([2]; po): 726 mg/kg
AST ([3]; rats F, ig (20 mg/kg)): 168.00 ± 17.19
Blood urea nitrogen (BUN) ([3]; rats F, ig (20 mg/kg)): 3.80 ± 0.59
Total Bilirubin (TBIL) ([3]; rats F, ig (20 mg/kg)): 2.10 ± 0.40
Creatinine kinase (CK) ([3]; rats F, ig (20 mg/kg), in U/L (unit assumed)): 776.00 ± 437.68
Albumin (ALB) ([3]; rats F, ig (20 mg/kg)): 32.43 ± 1.14
Total Proteins (TP) ([3]; rats F, ig (20 mg/kg)): 46.63 ± 1.07
Creatinine (CRE) ([3]; rats F, ig (20 mg/kg)): 57.50 ± 3.11
AST ([3]; rats F, iv (12 mg/kg)): 202.40 ± 68.12
Blood urea nitrogen (BUN) ([3]; rats F, iv (12 mg/kg)): 4.00 ± 0.43
Total Bilirubin (TBIL) ([3]; rats F, iv (12 mg/kg)): 2.72 ± 0.67
ALT [3, 7]: 38.00 ± 9.82
Creatinine kinase (CK) [3, 7]: 636.80 ± 536.05
Albumin (ALB) ([3]; rats F, iv (12 mg/kg)): 33.96 ± 1.71
Total Proteins (TP) ([3]; rats F, iv (12 mg/kg)): 49.00 ± 0.79
Creatinine (CRE) ([3]; rats F, iv (12 mg/kg)): 55.40 ± 2.30
AST ([3]; rats M, ig (20 mg/kg)): 4.92 ± 0.75
Blood urea nitrogen (BUN) ([3]; rats M, ig (20 mg/kg)): 2.76 ± 1.09
Total Bilirubin (TBIL) ([3]; rats M, ig (20 mg/kg)): 2.24 ± 1.50
Creatinine kinase (CK) ([3]; rats M, ig (20 mg/kg), in U/L (unit assumed)): 938.60 ± 553.43
Albumin (ALB) ([3]; rats M, ig (20 mg/kg)): 28.98 ± 7.34
Total Proteins (TP) ([3]; rats M, ig (20 mg/kg)): 40.26 ± 15.78
Creatinine (CRE) ([3]; rats M, ig (20 mg/kg)): 38.80 ± 25.62
AST ([3]; rats M, iv (12 mg/kg)): 5.34 ± 1.33
Blood urea nitrogen (BUN) ([3]; rats M, iv (12 mg/kg)): 3.46 ± 0.72
Total Bilirubin (TBIL) ([3]; rats M, iv (12 mg/kg)): 3.10 ± 1.23
Creatinine kinase (CK) ([3]; rats M, iv (12 mg/kg), in U/L (unit assumed)): 762.00 ± 351.72
Albumin (ALB) ([3]; rats M, iv (12 mg/kg)): 36.90 ± 6.72
Total Proteins (TP) ([3]; rats M, iv (12 mg/kg)): 53.40 ± 8.69
Creatinine (CRE) ([3]; rats M, iv (12 mg/kg)): 66.60 ± 15.09
Stability ([4]; in methanol solution): >24 h
Stability ([4]; in water): >24 h
